From the supplement of paper PMC10307832

Key:
Test in all cases: relative viability (nuclei count vs DMSO), 5 days (fraction); higher = more cells survive
[1] = compound: CCOc1cc2ncc(C#N)c(Nc3ccc(OCc4ccccn4)c(Cl)c3)c2cc1NC(=O)/C=C/CN(C)C [Neratinib] + CS(=O)(=O)N1CCN(Cc2cc3nc(-c4cccc5[nH]ncc45)nc(N4CCOCC4)c3s2)CC1 [Pictilisib] (partner 1 µM)
How it was run: (§1)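 Cells from lung cancer lines were seeded into 1536-well plates and, one day later, dosed by pin tool. Treatments were either a single drug or a fixed dose of an anchor drug with five library-drug doses (not always all listed) in √10 steps. After 5 days, nuclei were stained in a one-step fixation (final 0.05% Triton X-100, 1% formaldehyde, 1 ug/ml Hoechst) and counted on 4× images, and relative viability is the treated-to-vehicle nuclei ratio, as the median of duplicate plates.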

[2] = compound: CCOc1cc2ncc(C#N)c(Nc3ccc(OCc4ccccn4)c(Cl)c3)c2cc1NC(=O)/C=C/CN(C)C [Neratinib] + C[C@]1(O)C[C@@H](c2nc(-c3ccc4ccc(-c5ccccc5)nc4c3)c3c(N)nccn32)C1 [Linsitinib] (partner 1 µM)
How it was run: as §1

[3] = compound: CCOc1cc2ncc(C#N)c(Nc3ccc(OCc4ccccn4)c(Cl)c3)c2cc1NC(=O)/C=C/CN(C)C [Neratinib] + Cc1nc(NC(=O)N2CCC[C@H]2C(N)=O)sc1-c1ccnc(C(C)(C)C(F)(F)F)c1 [Alpelisib] (partner 2 µM)
How it was run: as §1

[4] = compound: CCOc1cc2ncc(C#N)c(Nc3ccc(OCc4ccccn4)c(Cl)c3)c2cc1NC(=O)/C=C/CN(C)C [Neratinib] + Nc1ncn([C@H]2C[C@H](O)[C@@H](CO)O2)c(=O)n1 [Decitabine] (partner 2 µM)
How it was run: as §1

Cell Line	relative viability ([1]; first compound 0.01 µM)	relative viability ([1]; first compound 0.03162 µM)	relative viability ([1]; first compound 0.1 µM)	relative viability ([1]; first compound 0.3162 µM)	relative viability ([1]; first compound 1 µM)	relative viability ([2]; first compound 0.01 µM)	relative viability ([2]; first compound 0.03162 µM)	relative viability ([2]; first compound 0.1 µM)	relative viability ([2]; first compound 0.3162 µM)	relative viability ([3]; first compound 0.01 µM)	relative viability ([3]; first compound 0.03162 µM)	relative viability ([3]; first compound 0.1 µM)	relative viability ([3]; first compound 0.3162 µM)	relative viability ([3]; first compound 1 µM)	relative viability ([4]; first compound 0.01 µM)	relative viability ([4]; first compound 0.03162 µM)	relative viability ([4]; first compound 0.1 µM)	relative viability ([4]; first compound 0.3162 µM)	relative viability ([4]; first compound 1 µM)	relative viability ([2]; first compound 1 µM)
NCI-H2009	0.862	0.892	0.727	0.638	0.432	1.2	1.15	0.85	1.18	1.14	1.16	1.11	1.17	0.955	0.358	0.396	0.342	0.447	0.387	
NCI-H1437	0.474	0.553	0.356	0.325	0.343	1.27	1.1		0.793	1.11	1.07	0.714	0.912	0.617	0.539	0.521	0.582	0.58	0.661	0.723
NCI-H647	0.437	0.506	0.456	0.364	0.183	1.08	1.16	1.14	1.07	1.17	1.13	0.958	0.862	0.614	0.438	0.453	0.364	0.358	0.371	0.601
201T	0.728	0.727	0.667	0.662	0.756	1.01	1.01	0.92	0.931	1.06	0.945	0.926	1.01	0.9	0.858	0.857		0.853	0.84	0.852
NCI-H358	0.302	0.336	0.231	0.295	0.228			0.264	0.26	0.781	0.841	0.372	0.236	0.22	0.205	0.186		0.129	0.117	0.205
LOU-NH91	0.53	0.496	0.483	0.484	0.469	0.871	0.831	0.656	0.504	0.628	0.598	0.507	0.447	0.475	0.794	0.775	0.68	0.673	0.604	0.529
HOP-62	0.677	0.826	0.691	0.669	0.52	0.864	1.03	1.06	1.09	0.903	1	0.847	0.967		0.215	0.222	0.198		0.215	1.07
NCI-H1915		1.03	0.93	0.904	0.881	1.11	1.13		1.09	1.12	1.13	1.04	0.99	0.829	0.262	0.271	0.251	0.241	0.286	0.874
NCI-H322M	0.528	0.455	0.499	0.333	0.327	0.752	0.929	0.793	0.486	0.657	0.839	0.803	0.478	0.218	0.678	0.643	0.646	0.558	0.39	0.337
NCI-H1651	0.661	0.633	0.422	0.449	0.343	1.13	0.925	0.911	0.747	1.03	1	0.823	0.783	0.616	0.63	0.663	0.391	0.585	0.543	0.786
RERF-LC-KJ	0.554	0.501	0.435	0.384	0.276	0.943		0.865	0.714	0.842	0.841	0.709	0.577	0.394	0.777	0.744	0.618	0.72	0.457	0.712
NCI-H661	0.507	0.399	0.303	0.24	0.272	0.621	0.536	0.499	0.299	0.66	0.959	0.443	0.187	0.236		0.513	0.38	0.331	0.337	0.197
NCI-H1993		0.772	0.721	0.796		0.833	0.659	0.71	0.648	0.624	0.666	0.717	0.687	0.664	0.643	0.628	0.272	0.484	0.578	0.838
NCI-H460	0.325	0.384	0.294	0.323	0.32	0.918	1.1		0.612	0.598	0.6		0.403	0.0801	0.559	0.527	0.522	0.459	0.449	0.222
NCI-H838	0.466	0.54	0.473	0.375	0.25	1.06	1.17	0.945	0.819	1.05	1.16	0.94	0.832	0.344	0.459	0.514	0.456	0.463	0.464	0.409
SK-MES-1	0.347	0.338	0.238	0.207	0.177		1.09	0.888	0.507	0.914	0.988	0.661	0.384	0.207	0.401	0.403	0.3	0.299	0.221	0.395
NCI-H1792	0.311	0.274	0.254	0.278	0.126	0.505	0.468	0.53	0.489		0.803	0.639	0.599	0.484	0.731	0.576	0.503	0.516	0.546	0.463
NCI-H1355	0.485	0.482	0.395	0.365	0.232	0.894	0.825	0.775	0.63	0.949	0.83	0.788	0.698	0.236	0.343	0.326	0.337	0.372	0.341	0.453
NCI-H596	0.374	0.417	0.35	0.4	0.329	1.2	1.07	0.995	0.923	0.464	0.474	0.433	0.489	0.304	1.88	1.1	1	0.986	0.863	0.791
A549	0.608	0.409	0.526	0.323	0.119	0.614	0.547	0.468	0.391	0.79	0.601	0.458		0.291	0.325	0.295		0.264	0.318	0.365
NCI-H2405	0.522	0.547	0.515	0.399	0.29	0.945	1.03	0.836	0.792	0.815	0.808	0.811	0.633	0.287	0.799	0.74	0.769	0.675	0.669	0.469
LCLC-97TM1	0.212	0.164	0.199	0.143	0.138	0.215	0.194	0.165	0.161	0.26	0.254	0.24	0.255	0.115	0.258	0.251	0.276		0.215	0.155
EMC-BAC-2	0.584	0.558	0.443	0.468	0.371	0.834	0.775	0.683	0.578	0.774		0.667	0.576	0.301	1.12	1	0.942	0.988	0.929	0.435
NCI-H1975	0.328	0.372	0.209	0.104	0.143	1.13	1.12	0.78	0.285	0.85	0.738	0.546	0.153	0.192	0.36	0.444	0.351	0.346	0.19	0.223
BEN	0.627	0.665	0.495	0.479	0.441	1.03	0.961	0.814	0.744	1.06	1.28	0.983	1.04	0.598	0.76	0.77	0.809	0.636	0.702	0.544
NCI-H2347	0.603	0.547	0.503	0.582	0.524	0.989	0.988	0.95	0.992	1.1	1.11	1.02	0.935	0.9	0.679	0.606		0.545	0.633	0.974
NCI-H650	0.974	0.898	0.729		0.644	1	0.986	1.03		1.13	1.32	0.999		0.85	0.321	0.347	0.328	0.326	0.345	0.577
EPLC-272H	0.376	0.387	0.316	0.338	0.307	1.19	1.08	0.999	0.711	0.962	0.87	0.699	0.71	0.352	0.407	0.444	0.332	0.331	0.344	0.872
